16 compounds from PubChem BioAssay (NCI) can be followed below.

Where “and” joins values, the source holds several entries; their conditions need not be identical. Equal entries are not always repeated.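 Five concentrations, 48 hours, 96-well plates. The concentration for 50% growth inhibition is given as GI50. TGI: total growth inhibition.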 Where only a bound is given, the exact number is not on record here.

Assay in all cases: NCI tumour cell line growth inhibition, 48 h
For assay [1], the system named is KM20L2 colon.
For assay [2], the system named is DMS 114 small cell lung.
Assay [3] concerns M19-MEL melanoma.
The subject of assay [4] is DLD-1 colon.
The test system of assay [5] is HOP-18 NSCLC.
In assay [6] the test system is LXFL 529 NSCLC.
For assay [7], the system named is XF 498 CNS.
For assay [8], the system named is RXF-631 renal.
The test system of assay [9] is MDA-N.
Assay [10] has as its system P388/ADR leukemia.
The test system of assay [11] is SN12K1 renal.

`Cc1ccc(NC(=O)/C(=N/NC(=O)CC#N)C2C(=O)N(c3ccccc3)N=C2N)cc1C` (stereo not given): the TGI in assay [1], in assay [2], in assay [3], in assay [4], in [5] and in [6] was above 100 µM throughout. Besides, the TGI in assay [7] is above 100 µM.

`NC1=NN(c2ccccc2)C(=O)C1C(=O)C(=O)Nc1cccc(C(F)(F)F)c1` (stereo not given): the TGI in assay [1], in assay [2], in [8], in [3], in assay [4] and in assay [5] was above 100 µM in each case. Further, the TGI in assay [6] and in [7] was above 100 µM in each case.

As for `CCOC(=O)c1ccc(C(O)CC(=O)OC(C)(C)C)[nH]1` (stereo not given), in assay [9], the GI50 is 17.8 µM and the TGI came out at 60.3 µM.

In turn, `O=C(CCc1ccc(O)c(O)c1)c1ccc(O)c(O)c1O` returned a TGI in assay [9] of 32.2 µM.

As for `O=C(/C=C\c1cccc2ccccc12)c1ccc(Br)cc1`, the TGI in [1] came out at 32.2 µM; in assay [2] it was 32.2 µM; in assay [3], 33.9 µM; in [4], 38.4 µM; in assay [5], 43.4 µM; in assay [6], 32.8 µM.

Regarding `O[C@H]1[C@H]2[C@H](O)CCCN2C[C@H]1O`, the TGI in assay [1], in assay [2], in assay [3], in [4], in assay [5] and in assay [6] was above 100 µM each time. Further, the TGI in assay [7] was above 100 µM.

Regarding `Nc1nc(F)nc2c1ncn2C1OC(COP(=O)(O)O)C(O)C1O` (stereo not given), the TGI in assay [1] was above 1250 µM; in assay [2], 626 µM; in assay [10] it was 160 µM; in assay [9] it was 723 µM; in [3], 877 µM; in assay [4] it was above 1080 µM. Further, the figures for the TGI in [5], in assay [11] and in assay [7] were 552 µM, 277 µM and 152 µM, respectively.

Take `c1cncc(-c2cc(-c3cc(-c4cccnc4)n[nH]3)[nH]n2)c1`: in [9], the TGI was above 100 µM.

For the compound `O=C1C(Br)=C(c2ccccc2)C(c2ccccc2)=C1c1ccccc1`, the TGI in [1] was 13.1 µM; in [2], 5.03 µM; in [9], 9.61 µM; in [8] it was 13.1 µM; in [3], 5.58 µM; in assay [4], 3.66 µM. Further, the TGI amounted to 14.9 µM in assay [5], 2.84 µM in [6] and 3.65 µM in assay [7].

Take `COc1ccc(/C(Cl)=C(\C=O)c2cc(OC)c(OC)c(OC)c2)cc1OC`: the TGI in assay [1] was above 100 µM; in assay [2] it was 85.9 µM; in assay [9], above 100 µM; in assay [8] it was 65.4 µM; in assay [3], above 100 µM; in [5], 58.4 µM. The same compound registered a TGI in [6] above 100 µM.

`C/C=C/CP(=O)(c1ccccc1)c1ccccc1`: the TGI in assay [1], in [2], in assay [3], in [4], in assay [5] and in assay [6] was above 100 µM each time. The same compound gave a TGI in [7] above 100 µM.

As for `CCOC(=O)CCc1c(C)c2ccc(O)cc2oc1=O`, in assay [9], the TGI was above 100 µM.

For the compound `NC(=S)N/N=C1\C(=O)N(c2cccc([N+](=O)[O-])c2)C(=O)C1C(=O)Nc1cccc([N+](=O)[O-])c1` (stereo not given), the TGI in assay [1], in [2], in assay [3], in assay [4], in assay [5] and in [6] was above 100 µM each time.

As to `CC1=Cc2cc3[n-]c(cc4nc(cc5[n-]c(cc1n2)c(C)c5CCC(=O)O)C(CCC(=O)O)=C4C)cc3C.[Cu+2]`, the GI50 is above 100 µM in assay [1]; > 1 µM and 11.5 µM in [2]; 62.4 µM in [9]; above 100 µM in assay [3]; above 42.6 µM in [4]; above 100 µM in assay [5]. In addition, the GI50 in [6] was > 1 µM and 12.4 µM; in assay [7], > 1 µM and 10.2 µM. Also, the TGI was above 100 µM in [1]; above 44.9 µM in assay [2]; above 100 µM in assay [9]; above 100 µM in assay [3]; above 93 µM in assay [4]; above 100 µM in assay [5]. The TGI was above 100 µM in assay [6]; > 1 µM and 26.5 µM in assay [7].

Turning to `CC1(C)OC(=O)C=C(O)O1.CC1(C)OC(=O)C=C(O)O1.CCO.Oc1ccc2c(c1)CCC2.[Ti]`, the GI50 in [1], in [2], in assay [3], in assay [4], in assay [5] and in [6] was above 100 µM each time. The TGI in assay [1], in assay [2], in assay [3], in assay [4], in assay [5] and in assay [6] was above 100 µM each time.

Take `Cc1cc(-c2cc(C)c(O)c(C(C)(C)C)c2)cc(C(C)(C)C)c1O`: in [9], the TGI was 21.2 µM and 27.9 µM.
